Source: patent publication US7612072B2, “Amorphous form of a phosphoric acid salt of a dipeptidyl peptidase-IV inhibitor” (Merck & Co., Inc., priority 2004, dated 2009)

Assay: Solubility in water of the amorphous form
Type: physicochemical

Q: Which solubility in water does the source give for `N[C@@H](CC(=O)N1CCn2c(nnc2C(F)(F)F)C1)Cc1cc(F)c(F)cc1F` [Compound I, (2R)-4-oxo-4-[3-(trifluoromethyl)-5,6-dihydro[1,2,4]triazolo[4,3-α]pyrazin-7(8H)-yl]-1-(2,4,5-trifluorophenyl)butan-2-amine dihydrogenphosphate] here?
A: The solubility in water was “high solubility in water”.
